Experimental data as given in patent US8466197B2, “Thiocarbonates as anti-inflammatory and antioxidant compounds useful for treating metabolic disorders” (Genmedica Therapeutics SL, priority 2010, dated 2013).

What was measured:
[1] = Pharmacokinetic study: diflunisal levels in plasma after oral administration in mice; assay type: in vivo; settings: 0.05 mmol/kg
Method: Diflunisal is detected in plasma of mice orally dosed with the compound described in Example 5 or the compound described in Example 8 (0.05 mmol/kg) (table 3).
Male cd-1 mice weighing 25-30 g are purchased from Charles River Laboratories Spain. The animals are housed in animal quarters at 22° C. with a 12-h light/12-h dark cycle and fed ad libitum. O/N fasted animals are dosed at […] with 0.05 mmol/kg of the indicated compound. […] Plasma was separated after centrifugation of blood and kept at −20° C. until metabolites determination.

[2] = In vitro cleavage studies: incubation with human liver S9 fraction, release of the NSAID; assay type: in vitro ADME; settings: after 1 h of incubation
Method: Table 1 and 2 summarize in vitro data showing that thiocarbonate compounds are hydrolyzed in the presence of human liver S9 fraction and release the NSAID component, Diflunisal (Table 1) or salicylate (Table 2).
The compounds are incubated with human liver S9 fraction to study its metabolic stability and to profile and identify the forming metabolites. The basic incubation mixture of 500 μl in volume consisted of the following components: 1.5 mg of protein per ml, substrate in DMSO, 1 mM NADPH, 1 mM UDPGA, 1 mM PAPS and 1 mM GSH. The substrate concentration used was 2 μM. The final amount of DMSO in the incubation was 1% (v/v). Each reaction mixture was preincubated for 2 minutes at +37° C. The reaction was started by addition of cofactors. After an incubation of 60 min, a 100 μl sample was collected and the reaction was terminated by adding an equal volume of ice-cold acetonitrile. Samples were subsequently cooled in an ice bath for 15 minutes and analyzed. […] The samples are analyzed by HPLC/TOF-MS to monitor both the disappearance of the parent compound and formation of metabolites. […] In addition to ion source conditions optimised to produce molecular ions with high abundance, the samples from last time point (60 min) are analysed also using another parameters (higher aperture voltage) to generate high-resolution in-source fragment ion data. […]

db/db mice = assay: Reduction of fasting glycemia in db/db mice; assay type: in vivo; settings: db/db mice treated for two weeks with a daily dose, versus vehicle; t-test p less than 0.01 (FIG. 1)
Method: 5-weeks old male mice C57BL/Ks bearing the db/db mutation (The Jackson Laboratories) and 7-weeks old male mice C57BL/6 bearing the ob/ob mutation are purchased from Charles River Laboratories Spain (Sant Cugat del Vallès, Spain) are treated with compounds as disclosed herein for a month, administered by single oral injection. Glycemia levels are determined in blood from the Tail Vein, using a rapid glucose analyzer (Accu-Chek Aviva; Roche) 3 times per week, as well as body weight measure. The food and water intake is measured twice a week.
db/db mice were treated for two weeks with a daily dose of the compound of Example 8, (R)-2-acetamido-3-((2′,4′-difluoro-3-(propoxycarbonyl)biphenyl-4-yloxy)carbonylthio) propanoic acid, or with vehicle.

Q: With COC(=O)c1cc(-c2ccc(F)cc2F)ccc1OC(=O)SCCC(NC(C)=O)C(=O)O (racemic) [Example 5, (+/−)-2-Acetamido-4-((2′,4′-difluoro-3-(methoxycarbonyl)biphenyl-4-yloxy)carbonylthio)butanoic acid] as the compound, how does the “Diflunisal detected in plasma of orally dosed mice” value [1] read?
A: detected

Q: Which “Release of the NSAID (diflunisal or salicylate) on incubation in the presence of human liver S9 fraction” value [2] does the source give for COC(=O)c1ccccc1OC(=O)SC[C@H](NC(C)=O)C(=O)O [Example 2, (R)-2-Acetamido-3-((2-(methoxycarbonyl)phenoxy)carbonylthio)propanoic acid] here?
A: no diflunisal or salicylate has been detected

Q: With CC(=O)N[C@@H](CSC(=O)Oc1ccccc1C(=O)OCc1ccccc1)C(=O)O [Example 4, (R)-2-Acetamido-3-((2-(benzyloxycarbonyl)phenoxy)carbonylthio) propanoic acid] as the compound, how does the “Release of the NSAID (diflunisal or salicylate) on incubation in the presence of human liver S9 fraction” value [2] read?
A: no diflunisal or salicylate has been detected

Q: With CCCOC(=O)c1cc(-c2ccc(F)cc2F)ccc1OC(=O)SC[C@H](NC(C)=O)C(=O)O [Example 8, (R)-2-Acetamido-3-((2′,4′-difluoro-3-(propoxycarbonyl)biphenyl-4-yloxy)carbonylthio)propanoic acid] as the compound, how does the “Diflunisal detected in plasma of orally dosed mice” value [1] read?
A: detected

Q: What about the Fasting glycemia (db/db mice) of the same compound?
A: significantly reduced
